{"source": "paper PMC5511861", "about": "“DS16570511 is a small-molecule inhibitor of the mitochondrial calcium uniporter” (Cell Death Discovery, 2017)", "key": {"MCU": {"molecular_target": "T1, MCU (Homo sapiens, UniProt Q8NE86)", "T1 construct": "expressed in transfected cells; host or cells: HEK293A cells, transient co-transfection with the mitochondria-targeted aequorin vector", "T1 sequence (Q8NE86 51-351)": "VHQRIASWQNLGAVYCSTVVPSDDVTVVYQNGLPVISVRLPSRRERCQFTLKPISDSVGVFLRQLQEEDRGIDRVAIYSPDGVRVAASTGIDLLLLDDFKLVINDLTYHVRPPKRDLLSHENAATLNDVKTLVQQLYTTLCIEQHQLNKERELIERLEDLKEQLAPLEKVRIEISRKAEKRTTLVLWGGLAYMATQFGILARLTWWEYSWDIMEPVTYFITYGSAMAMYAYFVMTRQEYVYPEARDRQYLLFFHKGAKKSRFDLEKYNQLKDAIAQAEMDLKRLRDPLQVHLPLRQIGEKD", "T1 sequence (Q9H4I9 48-107 partner limits assumed)": "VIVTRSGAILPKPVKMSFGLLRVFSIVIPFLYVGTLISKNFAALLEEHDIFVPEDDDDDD", "assay": "MCU-dependent mitochondrial Ca2+ influx in HEK293A cells overexpressing human MCU", "type": "cell-based", "settings": "pretreatment", "description": "(§1) Next, to investigate the molecular component of the mitochondrial calcium uniporter, MCU-dependent and MICU-dependent Ca^2+ influx were examined. […] The MCU-dependent increment of Ca^2+ influx was blocked by the DS16570511 pretreatment (Figure 5b). We then investigated the effects of the inhibitor on the regulatory subunit MICU1. Previous studies have shown that MICU1 facilitates mitochondrial Ca^2+ uptake through the presence of a high Ca^2+ level.[11],[22]\n(§2) Figure 5 DS16570511 inhibits mitochondrial Ca^2+ influx by MCU or MICU1. (a) Effect of overexpression of MCU or MICU1 on mitochondrial Ca^2+ influx in HEK293A cells. (b) Effect of DS16570511 on MCU-dependent mitochondrial Ca^2+ uptake in HEK293A cells. (c) Effect of DS16570511 on MICU1-dependent mitochondrial Ca^2+ uptake in HEK293A cells. […]\n(§3) In order to evaluate mitochondrial Ca^2+ uptake activity by MCU or MICU1, HEK293A cells were transiently transfected with the mitochondria-targeted aequorin vector and pcDNA3.1 vector containing human Mcu (NCBI Reference Sequence: NM_138357.2) or Micu1 (NM_001195518.1). One day after the transfection, the luminescence levels were measured as described above. MCU- or MICU1-dependent activity was calculated by subtracting the luminescence level of cells transfected with empty vector from that of cells expressing MCU or MICU1, respectively."}, "[1]": {"test_system": "serum-induced cytosolic Ca2+ increase in HEK293A cells", "assay": "Counter assay: serum-induced cytosolic Ca2+ increase in HEK293A cells expressing aequorin in cytosol", "type": "cell-based, human", "settings": "read-out: concentration used to decrease the serum-induced cytosolic Ca2+ increase by 50%", "experimental": "In the first screening using the cell-based assay, application of 10% fetal bovine serum to the cells triggered a rapid increase of mitochondrial Ca^2+ level (Figure 1a). Pretreatment of the cells with DS16570511 inhibited the serum-induced mitochondrial Ca^2+ influx with an IC50 of 7 μM (Figures 1a and b). In order to eliminate broad channel inhibitors or chemicals affecting the aequorin-based detection system, a counter assay was carried out using HEK293A cells expressing aequorin in cytosol. In the assay, the concentration of DS16570511 used to decrease the serum-induced cytosolic Ca^2+ increase by 50% was ~50 μM.\nFor dynamic measurements of mitochondrial Ca^2+ levels in intact cells, HEK293A cells were stably transfected with pIRES-puro vector expressing mitochondria-targeted aequorin.[20] One day after plating on a 15-cm dish (8×10^6 cells/dish), the cells were harvested and incubated with 2.5 μM coelenterazine h in aequorin assay buffer (200 mM Hanks Balanced Salt Solution, 25 mM HEPES (pH 7.0) and 0.1% bovine serum albumin) for 2 h at room temperature. The cells (8.1×10^4 cells/well) were then treated with DS16570511 for 20 min in a 96-well plate at room temperature. For induction of intracellular Ca^2+, the cells were treated with 10% fetal bovine serum, and luminescence levels were measured by using a Centro LB960 luminometer (Berthold Technologies, Oak Ridge, TN, USA)."}, "rat perfused heart": {"test_system": "rat perfused heart", "assay": "Cardiac functions (heart rate, contractility) in rat isolated perfused heart", "experimental": "We then investigated the effect of DS16570511 on cardiac functions in the perfused heart. We observed that heart rate was unaffected by DS16570511 in the range of 3–30 μM (Figure 7a). […] The increase of contractility was diminished by washout of the drug (Figure 7b), showing that the cardiac effect of DS16570511 is reversible.\nFigure 7 Effects of DS16570511 on cardiac functions. (a) Effect of DS16570511 on heart rate in rat perfused heart. Data are mean with S.E.M. from more than four independent samples. (b) Representative data showing acute and reversible effect of DS16570511 on contractility. (c) Effect of DS16570511 on contractility in rat perfused heart. Plotted are values of pretreatment and 5 min after treatment of 10 or 30 μM DS16570511.\nThe hearts were rapidly excised from 9-week-old male Wistar rats and perfused at 37 °C with Krebs-Ringer perfusion buffer (127.2 mM NaCl, 4.7 mM KCl, 2.5 mM CaCl2, 1.2 mM KH2PO4, 1.2 mM MgSO4, 25 mM NaHCO3 and 5.5 mM glucose (pH 7.4)) equilibrated with 95% O2/5% CO2. A balloon was inserted through the left atrium into the left ventricle. Heart rate and contractility were continuously recorded with a data acquisition system (PowerLab, ADInstruments, Bella Vista, NSW, Australia)."}, "MICU1": {"molecular_target": "T2, MICU1 (Homo sapiens, UniProt Q9BPX6)", "T2 construct": "expressed in transfected cells; host or cells: HEK293A cells, transient co-transfection with the mitochondria-targeted aequorin vector", "T2 sequence (Q9BPX6 34-476)": "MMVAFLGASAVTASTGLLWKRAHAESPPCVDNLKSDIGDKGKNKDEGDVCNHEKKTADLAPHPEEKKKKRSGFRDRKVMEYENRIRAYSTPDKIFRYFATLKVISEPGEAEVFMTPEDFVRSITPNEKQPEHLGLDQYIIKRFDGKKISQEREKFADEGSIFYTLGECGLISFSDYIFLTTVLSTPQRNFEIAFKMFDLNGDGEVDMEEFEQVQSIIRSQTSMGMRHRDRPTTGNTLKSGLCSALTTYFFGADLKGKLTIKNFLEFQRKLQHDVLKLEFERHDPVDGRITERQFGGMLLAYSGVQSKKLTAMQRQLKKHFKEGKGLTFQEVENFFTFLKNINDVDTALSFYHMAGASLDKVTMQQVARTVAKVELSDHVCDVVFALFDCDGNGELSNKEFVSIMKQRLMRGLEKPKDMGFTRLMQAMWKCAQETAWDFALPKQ", "assay": "MICU1-dependent mitochondrial Ca2+ influx in HEK293A cells overexpressing human MICU1", "type": "cell-based", "settings": "HEK293A cells overexpressing MICU1, serum-induced", "description": "as §1, §2, §3"}}}
{"smiles": "Cc1onc(-c2c(Cl)cccc2Cl)c1CNc1cccc(C(=O)c2cn(CCCC(=O)O)c3ccccc23)c1", "note": "[DS16570511]", "values": [{"measurement": "effect on MCU-dependent increment of mitochondrial Ca2+ influx", "setting": "MCU", "result": "blocked"}, {"measurement": "IC50", "setting": "[1]", "result": "~50", "unit": "µM"}, {"measurement": "effect on heart rate", "setting": "rat perfused heart; 3–30 μM", "result": "unaffected"}, {"measurement": "effect on cardiac contractility", "setting": "rat perfused heart; 10 or 30 μM, 5 min after treatment", "result": "increased cardiac contractility"}, {"measurement": "reversibility of the cardiac effect on washout", "setting": "rat perfused heart; washout of the drug", "result": "reversible"}, {"measurement": "effect on MICU1-dependent activation of the uniporter", "setting": "MICU1", "result": "blocked by DS16570511 in a dose-dependent manner"}]}
